This is an account of results in patent US6943017B2, “Method of producing antihypercholesterolemic agents” (Wisconsin Alumni Research Foundation, priority 1998, dated 2005).

Common to all, as to format: cell-based
The subject of one assay is fungi. In words: Antifungal activity (general statement). Particulars: noted by Applicants, no test described. An excerpt:
Applicants envision that the present invention is also useful for providing antifungal compounds and organisms engineered to express antifungal compounds. Preferably, one would measure the antifungal properties of a compound in the manner of N. Lomovskaya, et al., Microbiology 143:875-883, 1997. Measurement of inhibition of yeast growth can be found in R. Ikeura, et al., J. Antibiotics 41:1148, 1988. The same general methods could be used for all fungi. Both of these references are hereby incorporated by reference.

In assay [1] the test system is A. nidulans strains WMH1739 and WMH1740 (WMH1738 transformed with pWHM1263). The assay is described as follows: Lovastatin resistance test: spore suspension streaked on solid AMM plates containing lovastatin. Here is the method: (§1) This strain WMH1738 was transformed to hygromycin B resistance with pWHM1263. Transformant colonies were screened for lovastatin resistance and for the production of new metabolites as described below and two strains WMH1739 and WMH1740 were chosen for further analysis. […] This was analyzed by streaking 10 μl of a spore suspension on solid AMM plates containing lovastatin at 0, 0.1, 0.5, 1, 5, 10, 50 and 100 μg/ml and incubating at 37° C. Strains WMH1739 and WMH1740 were compared to strains WMH1741 and WMH1742 which were derivatives of WMH1738 transformed to hygromycin resistance with AN26. […] The two lovastatin resistant strains were fermented in lovastatin-producing conditions using fermentation method B and extracts were analyzed for lovastatin related metabolites as described below. […] One compound that was common to both comigrated with monacolin J on TLC and HPLC analysis by the methods described below. Semi-preparative HPLC was used to partially purify some of this compound, which was then analyzed by HPLC—MS. It had the same mass and fragmentation pattern as authentic monacolin J. The other compound, found in only one of the strains, comigrated with monacolin L on TLC and HPLC.

Assay [2] deals with A. nidulans strains WMH1741 and WMH1742 (WMH1738 transformed with AN26). The assay is described as above. Particulars: 37° C. Here is the method:
as §1

With `C[C@@H]1CC[C@@H]2[C@@H](CC[C@@H]3C[C@@H](O)CC(=O)O3)[C@@H](C)C=C[C@H]2C1` [dihydromonocolin L, dihydromonacolin L], in the assay with fungi, the antifungal activity entry is “varying degrees of antifungal activity”.

Regarding `CC[C@H](C)C(=O)O[C@H]1C[C@@H](C)C=C2C=C[C@H](C)[C@H](CC[C@@H]3C[C@@H](O)CC(=O)O3)[C@H]21` [lovastatin], the inhibition of growth entry is “no inhibition of growth” in assay [1] (strains WMH1739 and WMH1740, lovastatin at 0, 0.1, 0.5, 1, 5, 10, 50 and 100 μg/ml on solid AMM plates, 37° C.); “slight inhibition” in assay [2] (lovastatin 5 μg/ml on solid AMM plates); “almost complete growth inhibition” in assay [2] (lovastatin 50 μg/ml on solid AMM plates). Further, the “lovastatin concentration to which strains were significantly resistant” value in assay [1] (strains WMH1739 and WMH1740 compared with the host strain, solid media) was “up to 100 μg/ml”. In the assay with fungi, the antifungal activity entry is on record as “varying degrees of antifungal activity”.

With `C[C@H]1C=C2C=C[C@H](C)[C@H](CC[C@@H]3C[C@@H](O)CC(=O)O3)[C@H]2[C@@H](O)C1` [monocolin J, monacolin J], the antifungal activity result with fungi was “varying degrees of antifungal activity”.

Regarding `C[C@H]1C=C2C=C[C@H](C)[C@H](CC[C@@H]3C[C@@H](O)CC(=O)O3)[C@H]2CC1` [monocolin L, monacolin L], in the assay with fungi, the antifungal activity entry is given as “varying degrees of antifungal activity”.
